{
  "source": "patent US20140017336A1",
  "about": "“CO-ADMINISTRATION OF ARSENIC COMPOUNDS AND ANTI-HERPES VIRUS ANTI-VIRALS” (priority 2011, published 2014)",
  "key": {"[1]": {"tested_on": "uninfected parental A549 cells", "conditions": "4 days, 10 nM ATO, 40 μM GCV"}, "EBNA Cp mRNA": {"tested_on": "EBNA Cp mRNA", "assay": "EBNA Cp mRNA expression in LCL<EBV1-13> cells", "format": "cell-based, Epstein-Barr virus", "conditions": "three days, 10 nM ATO", "method": "FIGS. 8A-D. B-cells recently isolated from a patient were infected with EBV, allowed to grow out for several generations (only the EBV-infected cells would be able to grow out), and frozen until use. FIGS. 8A and B. FIGS. 8A and B graph the relative percent of viability of EBV-infected B-cells as just described (LCL<EBV1-13> cells) thawed and grown in one of: media alone (“control”), media and 45 μM ganciclovir (GCV), media and […] arsenic trioxide (ATO), or media and a combination of these concentrations of GCV and ATO. The bars show the relative viability of cells after 2 days of this treatment (“2 D,” FIG. 8A), and at three days (“3 D,” FIG. 8B). FIG. 8C. Epstein-Barr nuclear antigen (“EBNA”) driven by the C promoter (“Cp”) is transcribed only during the latent phase of the virus. FIG. 8C graphs the relative expression of EBNA Cp mRNA of LCL<EBV1-13> cells grown three days (“3 D”) in media alone (“control”), media and 45 μM ganciclovir (GCV), media and 10 nM arsenic trioxide (ATO), or media and a combination of these concentrations of GCV and ATO. […] FIG. 8D. FIG. 8D graphs the relative transcription of the viral immediate early protein Zta mRNA of LCL<EBV1-13> cells grown three days (“3 D”) in media alone (“control”), media and 45 μM ganciclovir (GCV), media and 10 nM arsenic trioxide (ATO), or media and a combination of these concentrations of GCV and ATO. […]"}, "EBV BMRF1 mRNA [2]": {"tested_on": "EBV BMRF1 mRNA", "assay": "qRT-PCR of BMRF1 mRNA in CNE1<EBV-BX1> cells", "format": "cell-based, Epstein-Barr virus"}, "EBV Zta protein": {"tested_on": "EBV Zta protein", "format": "in vivo, male nude mice", "conditions": "tumors harvested at 21 days of treatment"}, "EBV BMRF1 mRNA [3]": {"tested_on": "EBV BMRF1 mRNA", "format": "cell-based, Epstein-Barr virus", "conditions": "within 72 hours, qRT-PCR"}, "CNE1<EBV BX1> tumors": {"tested_on": "CNE1<EBV BX1> tumors", "assay": "CNE1<EBV BX1> nasopharyngeal carcinoma xenograft, tumor volume", "format": "in vivo, male nude mice", "conditions": "21 days of once daily treatment; GCV 100 μg/g, ATO 100 ng/g; carrier control just under double"}, "[4]": {"conditions": "dosage of ATO approved for relapsed or refractory acute promyelocytic leukemia (Fox et al., 2008); cited from earlier work"}, "EBV Zta mRNA": {"tested_on": "EBV Zta mRNA", "format": "cell-based, Epstein-Barr virus", "conditions": "72 hours, qRT-PCR"}},
  "note": "“Also recorded” adds a separate entry of the source.",
  "data": [
    {"substance": "arsenic trioxide [ATO]", "values": [
      {"measurement": "viability of uninfected parental cells", "setting": "[1]", "result": "did not affect the viability; also recorded: no effect on the viability"},
      {"measurement": "relative expression of EBNA Cp mRNA", "setting": "EBNA Cp mRNA", "result": "drops dramatically"},
      {"measurement": "ATO dose inducing upregulation of BMRF1 mRNA", "setting": "EBV BMRF1 mRNA [2]; 48 hours, 'as low as', to a lesser extent than ZTA", "result": 1.25, "unit": "nM"},
      {"measurement": "BMRF1 mRNA expression compared to control", "setting": "EBV BMRF1 mRNA [2]; 4 days, 1 nM ATO and/or 40 μM GCV", "result": "increased"},
      {"measurement": "Zta expression in tumor explant tissue", "setting": "EBV Zta protein", "result": "large pockets of reactivation"},
      {"measurement": "ATO dose inducing BMRF1 mRNA", "setting": "EBV BMRF1 mRNA [3]", "result": "≥ 12.5", "unit": "nM"},
      {"measurement": "tumor size increase over size at day 7 (pre-treatment)", "setting": "CNE1<EBV BX1> tumors", "result": "approximately 10%"},
      {"measurement": "peak serum arsenic level", "setting": "[4]", "result": "~400", "unit": "nM"},
      {"measurement": "ATO concentration inducing an increase in Zta mRNA", "setting": "EBV Zta mRNA", "result": "≥ 12.5", "unit": "nM"}
    ]}
  ]
}
